Test results from ChEMBL document CHEMBL1201862, “PubChem BioAssay data set” (2004).
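Values below derive from 48-hour exposures of cells grown in 96-well plates, with endpoints linearly interpolated between the two concentrations bracketing the appropriate inhibition level. The concentration for 50% growth inhibition is given as GI50.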 The source made the active and inactive calls. Rule as the data show it: active = GI50 up to about 1.1 µM and inactive = higher.

Assays:
Assay in all cases: NCI-60 cell line screen, 48 h
[1] = system: UACC-257
[2] = system: SK-MEL-28
[3] = system: OVCAR-8
[4] = system: SF-295
[5] = system: RPMI-8226
[6] = system: HOP-62
[7] = system: HCT-15
[8] = system: HL-60
[9] = system: U-251
[10] = system: SF-268
[11] = system: MDA-MB-231
[12] = system: T47D
[13] = system: SK-MEL-2
[14] = system: SK-OV-3
[15] = system: A549
[16] = system: UACC-62
[17] = system: LOX IMVI
[18] = system: KM12
[19] = system: SF-539
[20] = system: EKVX

SMILES | GI50 [1] | GI50 [2] | GI50 [3] | GI50 [4] | GI50 [5] | GI50 [6] | GI50 [7] [µM] | GI50 [8] | GI50 [9] | GI50 [10] | GI50 [11] | GI50 [12] | GI50 [13] | GI50 [14] | GI50 [15] | GI50 [16] | GI50 [17] | GI50 [18] | GI50 [19] | GI50 [20]
N=C(N)C(/N=N\c1ccccc1)C(=N)N (stereo unspecified) | 33.7 µM (inactive) | 49.1 µM (inactive) | 95.5 µM (inactive) | 32.9 µM (inactive) | 27.9 µM (inactive) | 61.7 µM (inactive) | 49.8 | 24.7 µM (inactive) | 24 µM (inactive) | 59.6 µM (inactive) | 15.3 µM (inactive) | 46.3 µM (inactive) | 23.4 µM (inactive) | 64.6 µM (inactive) | 49.9 µM (inactive) | 34.5 µM (inactive) | 34 µM (inactive) | 29.4 µM (inactive) | 14.9 µM (inactive) | 38.8 µM (inactive)
CCOc1ccc(NC(=O)/C(=N\N)C(C(=O)OC)c2nc3ccc(Cl)cc3nc2O)cc1 (stereo unspecified) | > 100 µM (inactive) | > 100 µM (inactive) | > 100 µM (inactive) | > 100 µM (inactive) | > 100 µM (inactive) | > 100 µM (inactive) | > 100 | > 100 µM (inactive) | > 100 µM (inactive) | > 100 µM (inactive) | > 100 µM (inactive) | > 100 µM (inactive) | > 100 µM (inactive) | > 100 µM (inactive) | > 100 µM (inactive) | > 100 µM (inactive) | > 100 µM (inactive) | > 100 µM (inactive) | > 100 µM (inactive) | 33 µM (inactive)
COP(=O)(OC)/C(=C/c1cn(C(c2ccccc2)(c2ccccc2)c2ccccc2)cn1)NC=O |  | 33.4 µM (inactive) | 21.7 µM (inactive) | 13.8 µM (inactive) | 32 µM (inactive) | 17.7 µM (inactive) | 25.6 | > 100 µM (inactive) | 16.4 µM (inactive) | 14.5 µM (inactive) | 16.2 µM (inactive) | 26.4 µM (inactive) | 16.9 µM (inactive) | 34 µM (inactive) | 23.4 µM (inactive) | 18.7 µM (inactive) | 15.9 µM (inactive) | 32.9 µM (inactive) | 14.4 µM (inactive) | 22 µM (inactive)
COc1cc2oc(=O)ccc2cc1C1OC(=O)C2OC21C (stereo unspecified) | > 100 µM (inactive) | > 100 µM (inactive) | > 100 µM (inactive) | > 100 µM (inactive) | > 100 µM (inactive) | > 100 µM (inactive) | > 100 | > 100 µM (inactive) | > 100 µM (inactive) | > 100 µM (inactive) | > 100 µM (inactive) | > 100 µM (inactive) | > 100 µM (inactive) | > 100 µM (inactive) | > 100 µM (inactive) | > 100 µM (inactive) | > 100 µM (inactive) | > 100 µM (inactive) | > 100 µM (inactive) | > 100 µM (inactive)
COc1cc2c3c(c1)c1cc(OC)c(OC)cc1c[n+]3CC2 | 18.1 µM (inactive) | 22.8 µM (inactive) | 4.32 µM (inactive) | 15.5 µM (inactive) | 18.7 µM (inactive) | 5.73 µM (inactive) | > 50 | > 50 µM (inactive) | 2.22 µM (inactive) | 0.0175 µM (active) | > 50 µM (inactive) | 5.35 µM (inactive) | 31.8 µM (inactive) | > 50 µM (inactive) | > 50 µM (inactive) | 19.1 µM (inactive) | 28.7 µM (inactive) | 3.77 µM (inactive) | 6.12 µM (inactive) | 8.51 µM (inactive)
C[C@@H](NC(=O)c1ccc(CNC(=O)/C=C/c2cccc(Oc3ccccc3)c2)cc1)c1ccccc1 | 55.7 µM (inactive) | > 100 µM (inactive) | 32.9 µM (inactive) | 26.8 µM (inactive) | > 100 µM (inactive) | 17.9 µM (inactive) | > 100 | > 100 µM (inactive) | 47.4 µM (inactive) | 20.8 µM (inactive) | > 100 µM (inactive) | 27.7 µM (inactive) | > 60.1 µM (inactive) | > 93.1 µM (inactive) | 14 µM (inactive) | > 82.6 µM (inactive) | > 100 µM (inactive) | > 100 µM (inactive) | 12.2 µM (inactive) | 21.8 µM (inactive)
Cc1ccc2nc3n(c2c1)C(c1c(F)cccc1F)SC3 (stereo unspecified) | > 100 µM (inactive) | > 100 µM (inactive) |  | > 100 µM (inactive) | > 100 µM (inactive) | > 100 µM (inactive) | > 100 | 71.6 µM (inactive) | > 100 µM (inactive) | > 100 µM (inactive) | > 100 µM (inactive) | > 100 µM (inactive) | > 100 µM (inactive) | > 100 µM (inactive) | > 100 µM (inactive) | > 100 µM (inactive) | > 100 µM (inactive) | > 100 µM (inactive) | > 100 µM (inactive) | 
CC(=O)OCC1OC(n2c3c(c(-c4ccc(Cl)cc4)c(C#N)c2=S)C(=O)CC(C)(C)C3)C(OC(C)=O)C(OC(C)=O)C1OC(C)=O (stereo unspecified) | 15.2 µM (inactive) | 23.6 µM (inactive) | 9.55 µM (inactive) | 32.6 µM (inactive) | 4.59 µM (inactive) | 42 µM (inactive) | 14.2 | 5.33 µM (inactive) | 19.1 µM (inactive) | 12.1 µM (inactive) | 15.2 µM (inactive) | 6.98 µM (inactive) | 23.4 µM (inactive) |  | 38 µM (inactive) | 7.62 µM (inactive) | 7.55 µM (inactive) | 29.7 µM (inactive) | 21.1 µM (inactive) | 
Nc1cccc(Nc2nc3ccccc3nc2NS(=O)(=O)c2ccccc2)c1 | 31.3 µM (inactive) | 18.3 µM (inactive) | 30 µM (inactive) | 27.5 µM (inactive) | 16.7 µM (inactive) | 26.7 µM (inactive) | 25.6 | 20.7 µM (inactive) | 17.7 µM (inactive) | 55.2 µM (inactive) | 14.8 µM (inactive) | 24.7 µM (inactive) | 15.7 µM (inactive) | 30.4 µM (inactive) | 33 µM (inactive) | 20.7 µM (inactive) | 22.7 µM (inactive) | 18.8 µM (inactive) | 19.1 µM (inactive) | 43.9 µM (inactive)
O=C(OCC(OC(=O)c1ccccc1)C1CC(C(O)C2CCCCC2)C(=O)O1)c1ccccc1 (stereo unspecified) | > 100 µM (inactive) |  | 49.3 µM (inactive) | 86.7 µM (inactive) | 24.2 µM (inactive) | 49.5 µM (inactive) | 43.2 | 16.4 µM (inactive) | 71.6 µM (inactive) | 91.8 µM (inactive) | > 100 µM (inactive) | 37.2 µM (inactive) | > 100 µM (inactive) | > 100 µM (inactive) |  | > 100 µM (inactive) | 37.4 µM (inactive) | 41.8 µM (inactive) | 25.1 µM (inactive) | > 100 µM (inactive)
COc1ccc2nccc(NCCCN3CCN(CCCNc4ccnc5ccc(OC)cc45)CC3)c2c1 | 1.04 µM (active) | 1.09 µM (active) | 0.612 µM (active) | 0.975 µM (active) | 0.264 µM (active) | 0.966 µM (active) | 11.8 | 0.0953 µM (active) | 0.232 µM (active) | 0.432 µM (active) | 0.357 µM (active) | 0.887 µM (active) | 1.25 µM (inactive) | 1.53 µM (inactive) | 0.296 µM (active) | 0.918 µM (active) | 0.272 µM (active) | 0.357 µM (active) | 0.173 µM (active) | 1.34 µM (inactive)
O=C1Nc2cccc(Cl)c2/C1=C\c1c(Cl)nc2n1CCS2 | > 100 µM (inactive) | > 100 µM (inactive) | > 100 µM (inactive) | > 100 µM (inactive) | > 100 µM (inactive) | > 100 µM (inactive) | 96.6 | > 100 µM (inactive) | > 100 µM (inactive) | > 100 µM (inactive) | > 100 µM (inactive) | 48.3 µM (inactive) | > 100 µM (inactive) | > 100 µM (inactive) | > 100 µM (inactive) | 73.5 µM (inactive) | > 100 µM (inactive) | > 100 µM (inactive) | 89.1 µM (inactive) | 84.7 µM (inactive)
CCc1cccc(CC)c1Nc1nc(-c2ccccc2-c2ccccc2)cs1 | > 100 µM (inactive) | > 100 µM (inactive) |  | > 100 µM (inactive) | 30.3 µM (inactive) | > 100 µM (inactive) | 94.2 | 55.7 µM (inactive) | 54.8 µM (inactive) | > 100 µM (inactive) | > 100 µM (inactive) | > 100 µM (inactive) | > 100 µM (inactive) | > 100 µM (inactive) | > 100 µM (inactive) | 86.5 µM (inactive) | > 100 µM (inactive) | 94.8 µM (inactive) | > 100 µM (inactive) | > 100 µM (inactive)
CC(=O)C(C(=O)C(C)(C)C)C(=O)C(C)(C)C | > 100 µM (inactive) | > 100 µM (inactive) | > 100 µM (inactive) | > 100 µM (inactive) | > 100 µM (inactive) | > 100 µM (inactive) | > 100 | > 100 µM (inactive) | > 100 µM (inactive) | > 100 µM (inactive) | > 100 µM (inactive) | > 100 µM (inactive) | > 100 µM (inactive) | > 100 µM (inactive) | > 100 µM (inactive) | > 100 µM (inactive) | > 100 µM (inactive) | > 100 µM (inactive) | > 100 µM (inactive) | 
